Literature values in patent US20200289439A1, “Process of Manufacturing a Stable, Ready To Use Infusion Bag For An Oxidation Sensitive Formulation” (InnoPharma Licensing, LLC, priority 2013, published 2020).

Tests used:
[1] = six adult volunteers
[2] = intravenous; therapeutic dosing, up to 4,000 mg daily

## CC(=O)Nc1ccc(O)cc1 [Acetaminophen, N-(4-hydroxyphenyl)acetamide]
[1]; intravenous vs oral
  mean intravenous Cmax compared to oral route: nearly two
[1]; intravenous vs rectal
  mean intravenous Cmax compared to rectal route: four fold higher
[2]
  hepatotoxicity: rarely associated with hepatotoxicity
